Measurements published in the OligoGym collection.
Where “and” joins values, the source holds several entries; their conditions need not be identical. Equal entries are not always repeated. After the bases stand the sugars from the 5' end (letter, count) and the backbone: PS all phosphorothioate, else s phosphorothioate and o phosphodiester by linkage. Methylation of C is not given here. e = 2'-O-(2-methoxyethyl) (MOE); k = constrained ethyl (cEt); d = 2'-deoxy (DNA); m = 2'-O-methyl

Key:
IRF4 = details: ASO
HSD17B13 = details: ASO, HepaRG

## ACACAGGCTAATCAGA (sugars k3 d10 k3, PS)
IRF4; SK-MEL-28, 4 µM
  target mRNA inhibition: 7%

## TCTTTATAGTAGGTAA (sugars k3 d10 k3, PS)
IRF4; MM.1R, 1 µM
  target mRNA inhibition: 14%

## TCATGATGTATACCAA (sugars k3 d10 k3, PS)
IRF4; SK-MEL-28, 4 µM
  target mRNA inhibition: 65%

## ACAAATTAAAGAGCGC (sugars k3 d10 k3, PS)
IRF4; SK-MEL-28, 4 µM
  target mRNA inhibition: 64%

## AGCCACTATGGTAGGA (sugars k3 d10 k3, PS)
IRF4; SK-MEL-28, 4 µM
  target mRNA inhibition: 43%

## TAGTATGAGAAACGGC (sugars kkddddddddddkeke, PS)
IRF4; MM.1R, 1 µM
  target mRNA inhibition: 46%

## AGAGCCCCTACCTTTT (sugars k3 d10 k3, PS)
IRF4; MM.1R, 1 µM
  target mRNA inhibition: -7%

## AGCCGCCGGCACAGGC (sugars k3 d10 k3, PS)
IRF4; SK-MEL-28, 4 µM
  target mRNA inhibition: 1%

## GAGTGCAGGAGAGGCT (sugars k3 d10 k3, PS)
IRF4; SK-MEL-28, 4 µM
  target mRNA inhibition: 31%

## AGTTTACACTGGATCT (sugars k3 d10 k3, PS)
IRF4; SK-MEL-28, 4 µM
  target mRNA inhibition: 70% and 74%

## AGTTGTAAATGAGTCG (sugars kkddddddddddkeke, PS)
IRF4; H929, 0.04 µM
  target mRNA inhibition: 53% and 73%
IRF4; KMS11, 0.2 µM
  target mRNA inhibition: 83% and 91%
IRF4; MM.1R, 0.074 µM
  target mRNA inhibition: 28%
IRF4; MM.1R, 0.222 µM
  target mRNA inhibition: 44%
IRF4; MM.1R, 0.666 µM
  target mRNA inhibition: 65%
IRF4; MM.1R, 1 µM
  target mRNA inhibition: 59%
IRF4; MM.1R, 2 µM
  target mRNA inhibition: 81%

## CAGTTGTAAATGAGTC (sugars kkdddddddddekeke, PS)
IRF4; H929, 0.00067 µM
  target mRNA inhibition: 1%
IRF4; H929, 0.002 µM
  target mRNA inhibition: 27%
IRF4; H929, 0.00667 µM
  target mRNA inhibition: 45%
IRF4; H929, 0.02 µM
  target mRNA inhibition: 60%
IRF4; H929, 0.04 µM
  target mRNA inhibition: 34%
IRF4; KMS11, 0.2 µM
  target mRNA inhibition: 83% and 90%
IRF4; MM.1R, 0.074 µM
  target mRNA inhibition: 12%
IRF4; MM.1R, 0.222 µM
  target mRNA inhibition: 39%
IRF4; MM.1R, 0.666 µM
  target mRNA inhibition: 65%
IRF4; MM.1R, 1 µM
  target mRNA inhibition: 72%
IRF4; MM.1R, 2 µM
  target mRNA inhibition: 88%

## GACTTAGAGGACAGTG (sugars k3 d10 k3, PS)
IRF4; SK-MEL-28, 4 µM
  target mRNA inhibition: 48%

## CTAAAGGAGTGCAGGA (sugars k3 d10 k3, PS)
IRF4; SK-MEL-28, 4 µM
  target mRNA inhibition: 6%

## TCCTATGGTCAGCCTC (sugars k3 d10 k3, PS)
IRF4; SK-MEL-28, 4 µM
  target mRNA inhibition: 48%

## TCACTAAGCTTGATAA (sugars k3 d10 k3, PS)
IRF4; SK-MEL-28, 4 µM
  target mRNA inhibition: 37%

## GAGCACCGCGCCGGAG (sugars k3 d10 k3, PS)
IRF4; SK-MEL-28, 4 µM
  target mRNA inhibition: 7%

## TTATATACTGGTTGGT (sugars kkdddddddddkekek, PS)
IRF4; MM.1R, 1 µM
  target mRNA inhibition: 50%

## TACGAGCACATGTCAA (sugars k3 d10 k3, PS)
IRF4; SK-MEL-28, 4 µM
  target mRNA inhibition: 36%

## ATCAGATTGAATCCAT (sugars k3 d10 k3, PS)
IRF4; MM.1R, 1 µM
  target mRNA inhibition: 23%

## ACTGAGTACAAACTAA (sugars k3 d10 k3, PS)
IRF4; SK-MEL-28, 4 µM
  target mRNA inhibition: 32%

## AAAAGCCCAAAATAGG (sugars k3 d10 k3, PS)
IRF4; SK-MEL-28, 4 µM
  target mRNA inhibition: -12%

## TAACTAAAACTGCATC (sugars k3 d10 k3, PS)
IRF4; SK-MEL-28, 4 µM
  target mRNA inhibition: 10%

## AGGCTAATCAGAATGG (sugars k3 d10 k3, PS)
IRF4; SK-MEL-28, 4 µM
  target mRNA inhibition: 42%

## CCGTCCCAGTAGATCC (sugars k3 d10 k3, PS)
IRF4; SK-MEL-28, 4 µM
  target mRNA inhibition: 25%

## AGTATGAGAAACGGCC (sugars kkddddddddddkeke, PS)
IRF4; MM.1R, 1 µM
  target mRNA inhibition: 9%

## GTTTCAACTAAACATG (sugars k3 d10 k3, PS)
HSD17B13; 1 µM
  target mRNA inhibition: 65%

## TTACAGCATCAAGACA (sugars k3 d1 m1 d8 k3, PS)
HSD17B13; 1 µM
  target mRNA inhibition: 46%

## GTCCAGGTTGAGATAA (sugars k3 d10 k3, PS)
HSD17B13; 1 µM
  target mRNA inhibition: 60%

## GTAATATTCATAGTTC (sugars k3 d10 k3, PS)
HSD17B13; 1 µM
  target mRNA inhibition: 49%

## GCTTAGTGTAGAATTG (sugars k3 d10 k3, PS)
HSD17B13; 1 µM
  target mRNA inhibition: 16%

## ATCTTAAGATACCCAG (sugars k3 d10 k3, PS)
HSD17B13; 1 µM
  target mRNA inhibition: 70%

## TGACAACAGAGTTCTG (sugars k3 d10 k3, PS)
HSD17B13; 1 µM
  target mRNA inhibition: 11%

## AGCTTAAACTCCAATG (sugars k3 d10 k3, PS)
HSD17B13; 1 µM
  target mRNA inhibition: 40%

## ATTGTCTAAACATCTC (sugars k3 d9 k3 e1, PS)
HSD17B13; 1 µM
  target mRNA inhibition: 71%

## CCTTAGAGTGAATCAT (sugars k3 d10 k3, PS)
HSD17B13; 1 µM
  target mRNA inhibition: 65%

## CACTAATGAATCATGA (sugars k3 d10 k3, PS)
HSD17B13; 1 µM
  target mRNA inhibition: 25%

## GATCTAAAACTGAAGG (sugars k3 d10 k3, PS)
HSD17B13; 1 µM
  target mRNA inhibition: 44%

## TTGCAGTTATTAGAAG (sugars kkdddddddddkekek, PS)
HSD17B13; 1 µM
  target mRNA inhibition: 27%

## GGTTGAGATAAAGCTG (sugars k3 d1 m1 d8 k3, PS)
HSD17B13; 1 µM
  target mRNA inhibition: 57%

## ATAGGGAGACCATGCT (sugars k3 d10 k3, PS)
HSD17B13; 1 µM
  target mRNA inhibition: 64%

## GTATGTTTATGTAAGC (sugars k3 d1 m1 d8 k3, PS)
HSD17B13; 0.02 µM
  target mRNA inhibition: 0%
HSD17B13; 0.078 µM
  target mRNA inhibition: 0%
HSD17B13; 0.313 µM
  target mRNA inhibition: 10%
HSD17B13; 1 µM
  target mRNA inhibition: 66%
HSD17B13; 1.25 µM
  target mRNA inhibition: 72%
HSD17B13; 5 µM
  target mRNA inhibition: 90%

## GTATGTTTATGTAAGC (sugars kkdddddddddkekek, PS)
HSD17B13; 0.02 µM
  target mRNA inhibition: 11%
HSD17B13; 0.078 µM
  target mRNA inhibition: 27%
HSD17B13; 0.313 µM
  target mRNA inhibition: 53%
HSD17B13; 1 µM
  target mRNA inhibition: 72%
HSD17B13; 1.25 µM
  target mRNA inhibition: 63%
HSD17B13; 5 µM
  target mRNA inhibition: 68%

## TTTCATATCCAGTAGG (sugars k3 d10 k3, PS)
HSD17B13; 1 µM
  target mRNA inhibition: 36%

## TTCACCAACGACTCCA (sugars k3 d10 k3, PS)
HSD17B13; 1 µM
  target mRNA inhibition: 62%

## TAGCAATTTAGCAAGA (sugars k3 d10 k3, PS)
HSD17B13; 1 µM
  target mRNA inhibition: 54%

## GATCTAGAACACTTGC (sugars k3 d10 k3, PS)
HSD17B13; 1 µM
  target mRNA inhibition: 27%

## TAGCAAGCCAACAGAG (sugars k3 d10 k3, PS)
HSD17B13; 1 µM
  target mRNA inhibition: 21%

## AAAAGACTTTGAGACT (sugars k3 d10 k3, PS)
HSD17B13; 1 µM
  target mRNA inhibition: 32%

## ACTACTTCAGTTAGCA (sugars k3 d10 k3, PS)
HSD17B13; 1 µM
  target mRNA inhibition: 79%

## TGCCAGATTGCACAAA (sugars k3 d10 k3, PS)
HSD17B13; 1 µM
  target mRNA inhibition: 54%

## GACTAAGGAGCTAGAT (sugars k3 d10 k3, PS)
HSD17B13; 1 µM
  target mRNA inhibition: 25%

## TCTCCATCATCGATGG (sugars k3 d10 k3, PS)
HSD17B13; 1 µM
  target mRNA inhibition: 24%

## GGTGGTAACGGTGATC (sugars k3 d9 k3 e1, PS)
HSD17B13; 1 µM
  target mRNA inhibition: 47%

## CTATTGATTGGCTTAA (sugars k3 d10 k3, PS)
HSD17B13; 1 µM
  target mRNA inhibition: 31%

## ACGGTGATCAAATGTA (sugars k3 d10 k3, PS)
HSD17B13; 1 µM
  target mRNA inhibition: 53%

## CCAACTATGTAATAGG (sugars k3 d10 k3, PS)
HSD17B13; 1 µM
  target mRNA inhibition: 68%

## TAGTCTTGATGTAGTG (sugars k3 d1 m1 d8 k3, PS)
HSD17B13; 1 µM
  target mRNA inhibition: 56%

## CTCTGGGACCAAGGAT (sugars k3 d10 k3, PS)
HSD17B13; 1 µM
  target mRNA inhibition: 51%

## CCCAAGGCCTGAAGTT (sugars k3 d10 k3, PS)
HSD17B13; 1 µM
  target mRNA inhibition: 61%

## CTAGGGAAATCTTTCA (sugars k3 d1 m1 d8 k3, PS)
HSD17B13; 1 µM
  target mRNA inhibition: 19%

## ATAACTACATGACCTG (sugars k3 d10 k3, PS)
HSD17B13; 1 µM
  target mRNA inhibition: 29%

## CTAAACATCTCTGGGA (sugars k3 d9 k3 e1, PS)
HSD17B13; 1 µM
  target mRNA inhibition: 57%

## TGTGATTGAGTTCTCC (sugars k3 d10 k3, PS)
HSD17B13; 0.02 µM
  target mRNA inhibition: 1%
HSD17B13; 0.078 µM
  target mRNA inhibition: 14%
HSD17B13; 0.313 µM
  target mRNA inhibition: 20%
HSD17B13; 1 µM
  target mRNA inhibition: 62%
HSD17B13; 1.25 µM
  target mRNA inhibition: 42%
HSD17B13; 5 µM
  target mRNA inhibition: 70%

## TGTTTATGTAAGCACA (sugars k3 d10 k3, PS)
HSD17B13; 1 µM
  target mRNA inhibition: 74%

## TCAAATGAGGCGGCAC (sugars k3 d10 k3, PS)
HSD17B13; 1 µM
  target mRNA inhibition: 46%

## CTTATGTAATAGCCAG (sugars kkdddddddddkekek, PS)
HSD17B13; 1 µM
  target mRNA inhibition: 61%

## TGGAGGAAAGCTTCAA (sugars k3 d10 k3, PS)
HSD17B13; 1 µM
  target mRNA inhibition: 10%

## TGTCCACCTTTAAATG (sugars k3 d1 m1 d8 k3, PS)
HSD17B13; 1 µM
  target mRNA inhibition: 17%
